# Laboratory results from US20250251402A1, “METHODS OF DETECTING MOLECULAR AGGREGATES USING IMAGE CORRELATION SPECTROSCOPY (ICS)” (The General Hospital Corporation, priority 2022, published 2025).
# “Also recorded” adds a separate entry of the source.
# Legend:
# SKOV3 cells = test: γH2AX immunofluorescence in SKOV3 cells (intensity, Imaris Spots, ICS TNoP and DA); type: cell-based
# From the text: (§1) For the ICS analysis, nuclei were segmented from the DAPI channel using a watershed approach in MATLAB. Briefly, we applied a difference of gaussians for size-based feature extraction of nuclei in the image (upper gaussian σ=100, lower gaussian σ=2-5 dependent on cell size). This feature enhanced image was then binarized to create a primary mask (using the function imbinarize) and connected components under 100 pixels were removed (using the function bwareaopen). We then created a distance transform of the resulting binary image (using the function bwdist). Seed points were determined by finding the regional maximum of a gaussian filtered image, with a gaussian σ of appropriate size for seed point detection (σ×7 or 8 dependent on cell size). The seed points were applied to the distance transform, and we applied the watershed function to the resulting image to obtain masks for each nucleus (extracted using the function regionprops).
# (§2) Using the nucleus masks, we performed ICS analysis on the antibody-stained channel, within size limitations for a nucleus (objects >400 and <2400 pixels). Intensity, DA and TNOP were calculated for each cell. In this analysis, since the ROI is defined by the nucleus mask (segmented from nuclear signal using DAPI staining), TNoP represents the total number of particles per nucleus, with the image area being the number of pixels in each nuclear mask.
# (§3) Measurements across experiments were normalized by the control in each dataset. […] Data were plotted in Prism and statistical analysis was performed in Excel.
# (§4) Imaris spots analysis were performed with Imaris 9.8 with background subtraction, using a spot size of 1 μm that was measured from the smallest distinguishable foci from the control image. For images with multiple nuclei, ImarisCell was used with the detection type “cell and vesicles”, where the nucleus in the DAPI channel was modelled as the “cell” and antibody-labeled foci were modelled as the “vesicles”. This enabled us to count the number of foci per nucleus for multiple cells. In each dataset, the automatic “quality” threshold was determined from the control image and the same threshold was used for every image in the dataset to be able to compare the outputs across datasets. Similar to the ICS analysis, only cells with an area between 400-2400 voxels were included for analysis.
# (§5) All chemicals were purchased from Sigma unless otherwise noted. All drugs were purchased from Selleck Chemicals. Cells were cultured in media supplemented with 10% fetal bovine serum and 1% penicillin/streptomycin. OVCA429 were originally obtained from Dr. Michael Birrer and cultured in DMEM. SKOV3 was obtained from ATCC and cultured in RPMI. For MMS treatment, cells were incubated for 6 hours before fixation with 4% formaldehyde, whereas for treatment with PARP inhibitors, cells were incubated for 24 hours before fixation.
# (§6) Cells were plated in 8-well slides (Fisher) to achieve 50% confluence overnight. Cells were then treated and fixed with 4% formaldehyde in PBS at room temperature for 10 minutes. Antibody staining was performed according to the manufacturers protocol (Cell Signaling Technologies or Abcam). Primary antibodies used were γH2AX (CST, #2577), RPA1 (CST, #2267) and RAD51 (Abcam, 63801), with Anti-rabbit IgG Fab2 Alexa Fluor 647 (CST, #4414) as the secondary fluorescent antibody. After antibody labeling, prolong gold with DAPI (CST) was added and samples were stored for up to 1 week prior to imaging. Confocal imaging was performed on an Olympus FV1000 multiphoton/confocal microscope using an Olympus XLUMPlanFL N 20× objective, NA 1.00 with chromatic correction, and 3× digital zoom. DAPI was excited with a 405 nm laser, while Alexa Fluor 647 was excited with a 635 nm laser. A multiband (DM 405/488/561/633 nm) dichroic mirror was used to direct the excitation laser and collect emission. […]
# OVCA429 cells = test: γH2AX immunofluorescence in OVCA429 cells (intensity, Imaris Spots, ICS TNoP and DA); type: cell-based
# From the text: as §1, §2, §3, §4, §5, §6
# PARP1 [1] = molecular target: T1, PARP1 (Homo sapiens, UniProt P09874); test: PARP1 trapping by chromatin fractionation in HT1080 cells; type: cell-based; settings: HT1080, 100 μM veliparib vs 1 μM talazoparib
# T1 sequence (P09874 whole entry, species assumed): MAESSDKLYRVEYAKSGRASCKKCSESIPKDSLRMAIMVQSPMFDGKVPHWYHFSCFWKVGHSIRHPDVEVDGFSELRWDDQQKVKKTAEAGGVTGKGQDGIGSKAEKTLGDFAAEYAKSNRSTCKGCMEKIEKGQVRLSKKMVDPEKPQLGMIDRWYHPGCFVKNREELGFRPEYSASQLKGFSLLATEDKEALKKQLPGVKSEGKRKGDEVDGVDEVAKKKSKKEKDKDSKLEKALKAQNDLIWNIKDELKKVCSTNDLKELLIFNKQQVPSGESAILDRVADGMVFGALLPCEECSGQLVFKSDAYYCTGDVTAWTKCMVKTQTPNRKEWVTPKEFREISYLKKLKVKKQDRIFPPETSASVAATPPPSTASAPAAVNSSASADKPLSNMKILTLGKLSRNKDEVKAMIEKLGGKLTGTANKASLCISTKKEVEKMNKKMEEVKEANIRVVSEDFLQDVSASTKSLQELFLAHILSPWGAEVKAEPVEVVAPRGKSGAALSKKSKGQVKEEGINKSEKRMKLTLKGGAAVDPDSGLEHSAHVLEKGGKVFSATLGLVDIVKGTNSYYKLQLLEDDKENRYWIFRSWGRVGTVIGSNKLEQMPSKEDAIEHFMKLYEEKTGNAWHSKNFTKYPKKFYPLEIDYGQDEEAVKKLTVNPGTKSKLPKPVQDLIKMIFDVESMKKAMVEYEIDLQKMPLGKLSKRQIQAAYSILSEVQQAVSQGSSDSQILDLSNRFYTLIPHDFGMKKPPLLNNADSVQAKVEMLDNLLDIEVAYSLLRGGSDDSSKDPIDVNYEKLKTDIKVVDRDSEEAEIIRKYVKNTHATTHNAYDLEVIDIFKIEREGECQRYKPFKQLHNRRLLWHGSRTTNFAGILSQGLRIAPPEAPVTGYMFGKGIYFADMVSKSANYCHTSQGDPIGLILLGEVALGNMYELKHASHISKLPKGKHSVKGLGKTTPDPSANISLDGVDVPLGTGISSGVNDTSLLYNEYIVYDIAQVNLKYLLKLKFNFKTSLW
# Description: Lysate was then pelleted by centrifugation at 14,000 g for 15 min at 4° C. Supernatant was transferred to a clean tube and total protein was determined using a BCA assay (Pierce). Protein was loaded into a NuPAGE gel (Thermo Fisher) and transferred to nitrocellulose paper (Thermo Fisher). Blocking and antibody labeling was then carried out according to the antibody manufacturer's protocol. For PAR measurements, cells were treated with TMZ for 1 hour, or 1 μM H2O2 for 10 minutes in 6-well plates. Cells were trypsinized and washed once with PBS prior to cell lysis. Western blot expression levels were quantified by inverting the red channel of an image of the blot in FIJI, subtracting the background intensity and measuring the total intensity of the lane. These values where then normalized to the control signal. […] The media was removed, and cells were scraped off the culture dish in 1 ml PBS. The cells were pelleted by centrifugation at 500 g for 4 minutes at 4° C. and the solution was removed. Pellets were resuspended in 250 μl lysis buffer (10 mM HEPES, 10 mM KCl, 1.5 mM MgCl2, 340 mM sucrose, 10% glycerol, 0.1% Triton X-100, pH 7.9, protease inhibitors (Thermo Fisher)) and incubated on ice for 10 minutes. Nuclei were separated by centrifugation at 1300 g for 5 minutes at 4° C. and the solution was collected (cytoplasm fraction). […]
# HCC1937 cells = test: 53BP1-mApple condensate anisotropy (homo-FRET) and intensity in HCC1937 cells; type: cell-based; settings: HCC1937, 1 μM PARPi and 100 μM TMZ for 1 hour
# Description: (§7) All fluorescence imaging was performed on an Olympus FV1000 multiphoton/confocal microscope. Anisotropy measurements were performed through custom modifications to the imaging system as previously described (30). Briefly, linear polarization of two photon excitation light at 910 nm (MaiTai femtosecond laser, Spectra Physics) was controlled by a glan-thompson prism and half wave plate. […] was collected in orthogonal orientations through two detectors, parallel and perpendicular to excitation polarization, through a polarizing beam splitter that replaced a dichroic mirror in the emission filter cube. The alignment and detector gain and noise were validated each imaging session through measurements of a standard slide. Images were taken with an Olympus 25× XLPlan N objective, NA 1.05, and 3× digital zoom. Confocal imaging was performed with an Olympus XLUMPlanFL N 20× objective, NA 1.00 with chromatic correction, and 3× digital zoom.
# Cells were grown on 12 mm round, uncoated, sterilized glass coverslips in 24-well plates for 24 hours. Cells were treated with PARPi and 100 μM TMZ for 1 hour or 10 nM GMX1778 overnight followed by 100 μM TMZ for 1 hour. TMZ was added to stimulate new DNA damage induced condensates in the presence of PARPi or NAD″ depletion. Cells were then transferred to the microscope for anisotropy imaging. Images were analyzed in MATLAB. Nuclei were segmented through intensity thresholding and condensates were segmented through further intensity thresholding with a higher threshold. Values of segmented nuclei and condensates were determined through the regionprops function. Segmentation was corrected through area restrictions to ensure that regions of interest were isolated condensates. The thresholding parameters were consistent throughout experiments. The average intensity and anisotropy of each segmented nuclei or condensate was then calculated. Data were plotted in Prism and analysis performed in Prism or Excel.
# HT1080 cells [2] = test: 53BP1-mApple condensate anisotropy and intensity in HT1080 cells; type: cell-based; settings: HT1080, increased veliparib concentrations
# Description: as §7
# Cells were grown on 12 mm round, uncoated, sterilized glass coverslips in 24-well plates for 24 hours. Cells were treated with PARPi and 100 μM TMZ for 1 hour or 10 nM GMX1778 overnight followed by 100 μM TMZ for 1 hour. […] Images were analyzed in MATLAB. […] Values of segmented nuclei and condensates were determined through the regionprops function. […] The average intensity and anisotropy of each segmented nuclei or condensate was then calculated. […]
# PARP1 [3] = molecular target: T1, PARP1; settings: actual rate multiplied by 10^−7 for the stochastic model
# From the text: ka (trap): The association constant of PARPi for PARP1. […] Values were taken as an average of previous measurements. […] Values were taken as an average of previous measurements. […] Values were taken as an average of previous measurements.
# Association of PARPi to PARP1 (p.ka_trap): The association constant of each PARPi on PARP1. […] Rates were corrected to account for the interpretation of PARP1 concentration relative to DNA through multiplying the actual rate by 10^−7. This rate correction was performed for all association constants.
# PARP = PARP (Homo sapiens, UniProt P09874); settings: HT1080, 1 μM PARPi, 500 nM fluorescent olaparib
# Sequence of PARP (P09874 2-1014): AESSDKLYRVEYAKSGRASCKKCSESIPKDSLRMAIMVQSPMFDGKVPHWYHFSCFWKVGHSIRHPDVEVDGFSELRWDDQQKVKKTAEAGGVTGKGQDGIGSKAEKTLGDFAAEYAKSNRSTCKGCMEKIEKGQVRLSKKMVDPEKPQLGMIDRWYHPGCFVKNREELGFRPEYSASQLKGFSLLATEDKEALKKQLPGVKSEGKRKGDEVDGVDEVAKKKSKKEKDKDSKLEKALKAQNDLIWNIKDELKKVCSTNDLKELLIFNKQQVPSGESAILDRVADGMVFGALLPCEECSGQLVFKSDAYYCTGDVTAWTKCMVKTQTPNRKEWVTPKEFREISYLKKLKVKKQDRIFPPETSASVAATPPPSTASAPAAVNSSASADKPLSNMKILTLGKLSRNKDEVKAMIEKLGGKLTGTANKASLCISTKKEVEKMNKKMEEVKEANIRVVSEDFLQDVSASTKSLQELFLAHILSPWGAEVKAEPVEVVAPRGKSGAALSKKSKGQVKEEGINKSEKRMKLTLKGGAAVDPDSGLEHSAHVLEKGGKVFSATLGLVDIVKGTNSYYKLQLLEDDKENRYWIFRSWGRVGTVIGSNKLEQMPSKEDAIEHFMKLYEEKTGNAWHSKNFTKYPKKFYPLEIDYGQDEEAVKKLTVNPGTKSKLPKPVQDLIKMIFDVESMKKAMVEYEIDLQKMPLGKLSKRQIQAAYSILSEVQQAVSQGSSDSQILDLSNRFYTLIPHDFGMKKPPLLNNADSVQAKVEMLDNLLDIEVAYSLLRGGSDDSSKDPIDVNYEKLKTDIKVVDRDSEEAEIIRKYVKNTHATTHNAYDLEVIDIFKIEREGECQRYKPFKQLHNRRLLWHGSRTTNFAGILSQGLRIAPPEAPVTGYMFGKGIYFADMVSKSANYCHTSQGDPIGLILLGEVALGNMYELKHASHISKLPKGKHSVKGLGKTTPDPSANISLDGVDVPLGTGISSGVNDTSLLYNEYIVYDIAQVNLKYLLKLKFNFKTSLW
# Description: Cells were grown on 25 mm round, uncoated, sterilized glass coverslips in 6-well plates for 24 hours. […] Coverslips were removed from the 6-well plates, mounted onto a perfusion chamber (Warner Instruments), sealed with vacuum grease and perfused with a custom tubing setup. The chamber was then mounted onto the microscope and temperature was maintained at 37° C. using a heating pad and feedback loop. Cells were initially located using fluorescent drug or autofluorescence and allowed to temperature equilibrate on the microscope stage for at least 5 minutes. Images were acquired using the anisotropy configuration as described above. After initial images were acquired, the chamber was perfused with 10× volume of the wash media containing fluorescent drug while chamber media and excess wash media were aspirated out of the chamber with vacuum. Images were then acquired at the desired time points while correcting for any drift. Association of fluorescent drug measurements were performed through rapid addition of media containing fluorescent drug (500 nM) and immediate image acquisition.
# Nuclei were segmented in MATLAB and the average nuclear intensity and anisotropy were calculated using the regionprops function. […] Values were then plotted as a function of time, with t=0 when PARPi was removed, in Prism (Graphpad) and a one phase association curve was fit to obtain the binding rate. […]
# PARP1 [4] = molecular target: T1, PARP1; settings: average of previous measurements; cited from earlier work
# PARP1-DNA = PARP1-DNA (Homo sapiens, UniProt P09874); settings: from previous findings; cited from earlier work
# Sequence of PARP1-DNA (P09874 whole entry): as the sequence (P09874 whole entry, species assumed) above
# HT1080 cells [5] = test: γH2AX immunofluorescence ICS DA and nuclear intensity in HT1080 cells; type: cell-based
# Description: (§8) Cells were plated in 8-well […] slides (Thermo or Ibidi) to achieve 50% confluence overnight. Cells were then treated and fixed with 4% paraformaldehyde in PBS at room temperature for 10 minutes. Antibody staining was performed according to the manufacturers protocol. Following fluorescent secondary antibody labeling, prolong gold with DAPI (Cell Signaling Technologies) was added and samples were stored for up to 1 week prior to imaging.
# ICS analysis was performed in MATLAB as previously described (41). Briefly, nuclei were segmented from the DAPI channel with the MATLAB function, imbinarize, converting the greyscale image to a binary dependent on an automatically defined threshold. The MATLAB function, regionprops, was used to identify single nuclei as objects. Each nucleus was used as a mask to perform ICS analysis on the antibody-stained channel, within size limitations for a nucleus (objects >400 and <3000 pixels). To ensure the analysis of antibody stained nuclei, nuclei under an average intensity of 200 au after background subtraction were excluded. The spatial autocorrelation functions were calculated using Fourier methods, then fit to a 2D Gaussian using a nonlinear least-squares algorithm (41). Using the outputs of the fitting, the mean number of independent emitting fluorescent entities per focal spot area and subsequently the DA were determined (59). DA measurements across experiments were normalized by the control in each dataset. […] Any DA values exceeding 3 standard deviations from the mean were defined as incorrectly segmented and removed. Data were plotted in Prism and analysis performed in Prism or Excel.
# HT1080 cells [6] = test: Dose response cell viability (Presto Blue) in HT1080 cells; type: cell-based; settings: HT1080, 100 nM PDD00017273
# Description: Cells were plated in a 96-well plate at 2×10^3 cells per well and treated with drug for 5 days in three replicate wells. Cell viability was then determined using Presto Blue (Thermo Fisher). Signal was averaged over 3 replicate wells and normalized to blank (no cells) as well as to the levels of untreated wells. A sigmoidal response curve was fit to the average of two experiments in Prism. PARPi z score was calculated for each PARPi using 9 cell lines. The average z score over three PARPi (veliparib, olaparib, talazoparib) was then determined as a representation of cell line PARPi sensitivity.
# 7 cell lines = test: γH2AX immunofluorescence DA and intensity in 7 cell lines; type: cell-based; settings: all cell lines, 1 μM PARPi overnight
# Description: as §8
# ICS analysis was performed in MATLAB as previously described (41). Briefly, nuclei were segmented from the DAPI channel with the MATLAB function, imbinarize, converting the greyscale image to a binary dependent on an automatically defined threshold. The MATLAB function, regionprops, was used to identify single nuclei as objects. Each nucleus was used as a mask to perform ICS analysis on the antibody-stained channel, within size limitations for a nucleus (objects >400 and <3000 pixels). To ensure the analysis of antibody stained nuclei, nuclei under an average intensity of 200 au after background subtraction were excluded. The spatial autocorrelation functions were calculated using Fourier methods, then fit to a 2D Gaussian using a nonlinear least-squares algorithm (41). Using the outputs of the fitting, the mean number of independent emitting fluorescent entities per focal spot area and subsequently the DA were determined (59). […]
Compound,"ICS TNoP of γH2AX, dose dependence (SKOV3 cells; SKOV3)","Normalized γH2AX intensity (SKOV3 cells; SKOV3, 1 μM veliparib, 24 hours)","ICS DA of γH2AX at 100 μM, compared to respective controls (SKOV3 cells; SKOV3, 100 μM)","Number of γH2AX foci (Imaris Spots) at the highest dose of PARP inhibitor (SKOV3 cells; SKOV3, highest dose)","ICS DA of γH2AX, dose dependence (OVCA429 cells; OVCA429)","Imaris Spots analysis of γH2AX, dose dependence (OVCA429 cells; OVCA429)","γH2AX intensity, dose dependence (OVCA429 cells; OVCA429, PARP inhibitors)",PARP1 trapping (PARP1 [1]),53BP1-mApple condensate anisotropy vs control (HCC1937 cells),Condensate 53BP1-mApple intensity (HT1080 cells [2]),"p.ka_trap: association of PARPi to PARP1, corrected rate (PARP1 [3])",Apparent dissociation constant (koff) of PARPi in live cells (PARP),ka (trap): association constant of PARPi for PARP1 (PARP1 [4]),kd (trap): dissociation of PARPi from PARP1(-DNA) (PARP1 [4]),kd (rel PARPi): dissociation constant of PARPi-PARP1 from DNA (PARP1-DNA),"γH2AX DA induced by 1 μM veliparib or talazoparib, with vs without PDD00017273 (HT1080 cells [5]; HT1080, 100 nM PDD00017273 overnight)","HT1080 dose response to veliparib, with vs without PDD00017273 (HT1080 cells [6])","γH2AX levels measured by intensity (HT1080 cells [5]; HT1080, 1 μM PARPi overnight)",γH2AX levels (intensity) over control (7 cell lines)
C[C@]1(c2nc3c(C(N)=O)cccc3[nH]2)CCCN1 [veliparib],failed to induce any correlative TNOP dose dependence,slight decrease,higher value than 100 μM olaparib,higher,full dose dependent increases in γH2AX clustering,failed to capture the full dose dependent DNA damage,did not show a dose dependence,unable to reproduce the trapping observed with just 1 μM talazoparib,not,lowered condensate 53BP1-mApple intensity,0.18 M⁻¹ s⁻¹,values similar to those previously determined in purified protein,1.8e+06 M⁻¹ s⁻¹,0.005 s⁻¹,0.00408 s⁻¹,,,,
PDD00017273,,,,,,,,,,,,,,,,did not alter the veliparib or talazoparib induced γH2AX DA; also recorded: no significant differences,did not impact HT1080 response to veliparib,,
Cn1ncnc1[C@H]1c2n[nH]c(=O)c3cc(F)cc(c23)N[C@@H]1c1ccc(F)cc1 [talazoparib],,,,,,,,,significantly lower condensate anisotropy compared to control,,,,,,,,,high levels of γH2AX,increased γH2AX levels
